Data on 30 molecules can be found in patent US11618746B2, “Inhibitors of APOL1 and methods of using same” (Vertex Pharmaceuticals Incorporated, priority 2018, dated 2023).

In the test the target is T1, G1 APOL1 (Homo sapiens, UniProt O14791, I384M/S342G).
T1 construct: expressed in transfected cells
T1 sequence (O14791 28-398 S342G/I384M): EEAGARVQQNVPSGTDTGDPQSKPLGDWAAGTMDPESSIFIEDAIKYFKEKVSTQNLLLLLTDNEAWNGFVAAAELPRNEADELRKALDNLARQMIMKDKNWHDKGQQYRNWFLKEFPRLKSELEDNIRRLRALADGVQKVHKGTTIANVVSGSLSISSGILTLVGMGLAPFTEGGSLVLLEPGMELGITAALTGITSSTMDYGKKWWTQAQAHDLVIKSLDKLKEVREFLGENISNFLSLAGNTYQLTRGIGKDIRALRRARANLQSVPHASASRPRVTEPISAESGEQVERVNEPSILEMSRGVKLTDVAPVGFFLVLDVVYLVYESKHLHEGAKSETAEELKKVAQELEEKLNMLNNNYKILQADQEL
Put plainly: Acute APOL1 Thallium Assay with inducible stable clones of HEK 293 cells. It is filed as cell-based. The settings on record: HEK T-Rex tetracycline-inducible cells expressing G1 APOL1 (clone G1 DC3.25); inhibition of thallium flux rate. The text has this: Acute APOL1 Thallium Assay with Inducible Stable Clones of HEK 293 Cells
Apolipoprotein L1 (APOL1) proteins form potassium-permeable cation pores in the plasma membrane. APOL1 risk variants (G1 and G2) induce greater potassium flux than G0 in HEK293 cells. This assay exploits the permeability of thallium (T1+) through ligand-gated potassium channels. The dye produces a bright fluorescent signal upon binding to T1+ conducted through potassium channels. The intensity of the T1+ signal is proportional to the number of potassium channels in the open state. Therefore, it provides a functional indication of the potassium channel activities. During the initial dye-loading step, the T1+ indicator dye as an acetoxymethyl (AM) ester enters the cells through passive diffusion. Cytoplasm esterases cleave the AM ester and relieve its active thallium-sensitive form. The cells are then stimulated with T1+. The increase of fluorescence in the assay represents the influx of T1+ into the cell specifically through the potassium channel (i.e. through APOL1 pores), providing a functional measurement of potassium channel/pore activity. The Thallium assay is conducted with cells expressing G1 APOL1.
APOL1 Cell Line (HEK T-Rex Stable Inducible Cell Line) • HEK T-Rex System • Tetracycline (Tet) inducible mammalian expression system. • Stably express the Tet repressor to regulate transcription. • Expression under the full-length CMV promoter. • APOL1 stable inducible cell line Clone used: G1 DC3.25
Tissue Culture Media • Cell Culture Medium • DMEM +10% FBS +P/S +5 μg/mL blasticidin+1 μg/mL puromycin. • 500 mL DMEM +55 mL FBS +5 mL P/S +280 μL blasticidin S HCl (10 mg/mL)+56 μL puromycin (10 mg/mL). • Cell Assay Medium • DMEM with 2% FBS+pen strep.
Instruments and Equipment • Nuaire cell culture hood, Cat. No. 540-600 • 37° C./5% CO2 incubator link to robotic arm, Liconic: STX110 • Molecular Devices FLIPR^Tetra High throughput cellular screening system, Cat. No. FT0324, Molecular Devices • ThermoFisher MultiDrop 384, Cat. No. 5840300 • Biotek Microfill, Cat. No. ASF1000A-4145 • BioRad TC10 cell counter, Cat. No. 145-0010 Assay Procedures
Cells Scaled Up from Frozen Vials • APOL1 G1 3.25 (HEK293 T-Rex) frozen vials: 5 million cells per vial • Step 1, Day 1: Defrost frozen vial into T-225. • Step 2, Day 5: (when 85% confluent): Split one T-225 at 3×10^6 cells per flask. • Step 3, Day 8: Splits cells to set up for the assay plates as described below.
T-Rex APOL1 HEK cells are split twice per week to keep the confluence state below 85% of the culture flask surface area. Cells can be kept until passage 25. • Cell Culture Medium • DMEM high glucose +10% FBS, +P/S, +5 μg/mL blasticidin, +1 μg/mL puromycin. • 500 mL DMEM, +55 mL FBS, +5 mL P/S, +280 μL blasicidin 10 mg/mL, +56 μL Puromycin 10 mg/mL. • Assay Media • Opti-MEM reduced serum medium from Invitrogen.
Preparation of Cell Assay Plates • Culture medium is removed from the x cm^2 T-flask by aspiration. • The cell monolayer is rinsed with PBS 1× at room temperature. PBS is removed by aspiration. • Cells are trypsinized using Trypsin. • The flasks are incubated at room temperature for 2-3 minutes. • Complete DMEM medium is then added. Cell suspension is then transferred to a 50 mL Falcon polypropylene tube. • Cells are then counted using a Biorad TC10 cell counter and the required amount of cells are centrifuged at 1200 RPM for 5 minutes. Required amount is 1.3×10^6 cells/mL APOL1 T-Rex HEK cells. • The pellet is suspended in the assay medium. • Using the MultiDrop, add 20 μL to each well (corresponds to 26000 cells total per well) of a 384-well black, transparent, flat bottom Poly-D coated plate. • Tetracycline as prepared in the following section is added to the cells before plating to induce APOL1 expression. • Plates are left at room temperature for 20 to 30 minutes before incubation at 37° C. and 5% CO2. […]
`O=C(CCc1c(-c2ccc(F)cc2)[nH]c2c(F)cc(OC(F)F)cc12)N[C@@H]1C(=O)NC[C@H]1O` [Compound 106]: the IC50 is < 0.25 µM.

For the molecule `O=C(CCc1c(-c2ccc(F)cc2)[nH]c2c(F)cc(Cl)cc12)N[C@H]1CCNC1=O` [Compound 32], the half-inhibitory concentration (IC50) was < 0.25 µM.

For the molecule `O=C(CCc1c(-c2ccc(OC(F)F)cc2)[nH]c2ccccc12)N[C@@H]1C(=O)NC[C@H]1O` [Compound 117], the IC50 was < 0.25 µM.

Regarding `O=C(N[C@@H]1C(=O)NC[C@H]1O)[C@H](O)Cc1c(-c2ccc(F)cc2)[nH]c2c(F)cc(F)cc12` [Compound 92, (2R)-3-[5,7-difluoro-2-(4-fluorophenyl)-1H-indol-3-yl]-2-hydroxy-N-[(3S,4R)-4-hydroxy-2-oxo-pyrrolidin-3-yl]propanamide], the IC50 is > 1 µM.

As to `O=C(CCc1c(-c2ccc(F)cc2)[nH]c2ccccc12)N[C@@H]1C(=O)NC[C@@H]1O` [Compound 135, 3-[2-(4-fluorophenyl)-1H-indol-3-yl]-N-[(3S,4S)-4-hydroxy-2-oxo-pyrrolidin-3-yl]propanamide], the IC50 was > 1 µM.

Molecule `CC(C)c1cccc2c(CCC(=O)N[C@@H]3C(=O)NC[C@H]3O)c(-c3ccccc3)[nH]c12` [Compound 68] yielded an IC50 of 0.25 to 1 µM.

On to `C[C@H]1CNC(=O)[C@H]1NC(=O)CCc1c(-c2ccc(F)cc2)[nH]c2c(F)cc(F)cc12` [Compound 11], for which the IC50 is > 1 µM.

As for `O=C(N[C@H]1CCNC1=O)[C@H](O)Cc1c(-c2ccc(F)cc2)[nH]c2c(F)cc(F)cc12` [Compound 93, (2R)-3-[5,7-difluoro-2-(4-fluorophenyl)-1H-indol-3-yl]-2-hydroxy-N-[(3S)-2-oxopyrrolidin-3-yl]propanamide], the 50% inhibitory concentration (IC50) is > 1 µM.

Regarding `O=C(CCc1c(-c2ccc(F)cc2)[nH]c2c(C(F)F)cc(F)cc12)N[C@@H]1C(=O)NC[C@H]1O` [Compound 100, 3-[7-(difluoromethyl)-5-fluoro-2-(4-fluorophenyl)-1H-indol-3-yl]-N-[(3S,4R)-4-hydroxy-2-oxo-pyrrolidin-3-yl]propanamide], the 50% inhibitory concentration (IC50) is < 0.25 µM.

As to `Cc1ccc(-c2[nH]c3c(F)cc(F)cc3c2CCC(=O)N[C@H]2CCNC2=O)cc1` [Compound 23], the IC50 is < 0.25 µM.

For the molecule `CC(CC(=O)N[C@@H]1C(=O)NC[C@H]1O)c1c(-c2ccc(F)cc2)[nH]c2c(F)cc(F)cc12` (mixture of isomers) [Compound 97, 3-[5,7-difluoro-2-(4-fluorophenyl)-1H-indol-3-yl]-N-[(3S,4R)-4-hydroxy-2-oxo-pyrrolidin-3-yl]butanamide], the IC50 was > 1 µM.

As for `N#Cc1cccc(-c2[nH]c3ccc(F)cc3c2CCC(=O)N[C@H]2CCNC2=O)c1` [Compound 53], the IC50 was > 1 µM.

Molecule `C=C(C)c1cccc2c(CCC(=O)N[C@@H]3C(=O)NC[C@H]3O)c(-c3ccccc3)[nH]c12` [Compound 67] showed an IC50 of 0.25 to 1 µM.

The molecule `O=C(CCc1c(-c2ccc(F)cc2)[nH]c2c(F)cc(F)cc12)N[C@H]1C(=O)NC[C@H]1O` [Compound 15] gave an IC50 of 0.25 to 1 µM.

Regarding `O=C(CCc1c(-c2ccc(F)cc2)[nH]c2c(F)cc(F)cc12)N[C@H]1C[C@H](CF)NC1=O` [Compound 10], the half-inhibitory concentration (IC50) was > 1 µM.

In the case of `O=C(CCc1c(-c2ccccc2)[nH]c2c(C(F)(F)F)cc(F)cc12)N[C@@H]1C(=O)NC[C@H]1O` [Compound 132, 3-[5-fluoro-2-phenyl-7-(trifluoromethyl)-1H-indol-3-yl]-N-[(3S,4R)-4-hydroxy-2-oxo-pyrrolidin-3-yl]propanamide], the IC50 was < 0.25 µM.

Regarding `O=C(CCc1c(-c2ccccc2)[nH]c2c(F)cc(F)cc12)N[C@H]1CCNC1=O` [Compound 25], the IC50 was < 0.25 µM.

Take `O=C(CCc1c(-c2ccccc2)[nH]c2c(F)cccc12)N[C@H]1CCNC1=O` [Compound 60]: the IC50 lay within 0.25 to 1 µM.

Molecule `O=C(CCc1c(-c2ccc(F)cc2)[nH]c2c(F)cc(Cl)cc12)N[C@@H]1CCNC1=O` [Compound 33] registered an IC50 of 0.25 to 1 µM.

Regarding `CC(CC(=O)N[C@H]1CCNC1=O)c1c(-c2ccc(F)cc2)[nH]c2c(F)cc(F)cc12` (mixture of isomers) [Compound 96, 3-[5,7-difluoro-2-(4-fluorophenyl)-1H-indol-3-yl]-N-[(3S)-2-oxopyrrolidin-3-yl]butanamide], the half-inhibitory concentration (IC50) is > 1 µM.

Take `Cc1c(F)ccc2c(CCC(=O)N[C@@H]3C(=O)NC[C@H]3O)c(-c3ccccc3)[nH]c12` [Compound 84]: the IC50 was < 0.25 µM.

For `O=C(CCc1c(-c2ccc(F)cc2)[nH]c2c(F)cc(F)cc12)NC1CC2(CC2)NC1=O` (stereo not drawn) [Compound 17], the half-inhibitory concentration (IC50) is > 1 µM.

Turning to `O=C(CSc1c(-c2ccc(F)cc2)[nH]c2ccccc12)N[C@@H]1C(=O)NC[C@H]1O` [Compound 130, 2-[[2-(4-fluorophenyl)-1H-indol-3-yl]sulfanyl]-N-[(3S,4R)-4-hydroxy-2-oxo-pyrrolidin-3-yl]acetamide], the IC50 is < 0.25 µM.

Turning to `O=C1NC[C@@H](O)[C@@H]1NC(=O)[C@@H](O)Cc1c(-c2ccc(F)cc2)[nH]c2c(F)cc(F)cc12` [Compound 94, (2S)-3-[5,7-difluoro-2-(4-fluorophenyl)-1H-indol-3-yl]-2-hydroxy-N-[(3S,4R)-4-hydroxy-2-oxo-pyrrolidin-3-yl]propanamide], the IC50 is > 1 µM.

The molecule `Cc1cc(F)cc2c(CCC(=O)N[C@H]3CCNC3=O)c(-c3ccc(F)cc3)[nH]c12` [Compound 39] yielded an IC50 of 0.25 to 1 µM.

Take `O=C(CCc1c(-c2ccc(F)cc2)[nH]c2c(F)cc(F)cc12)N[C@H]1C[C@@H](CF)NC1=O` [Compound 9]: the IC50 is > 1 µM.

`C[C@@H](Cc1c(-c2ccc(F)cc2)[nH]c2c(F)cc(F)cc12)C(=O)N[C@H]1CCNC1=O` [Compound 90, (2S)-3-[5,7-difluoro-2-(4-fluorophenyl)-1H-indol-3-yl]-2-methyl-N-[(3S)-2-oxopyrrolidin-3-yl]propanamide]: the IC50 was > 1 µM.

On to `O=C(CCc1c(-c2ccc(F)cc2)[nH]c2c(C(F)(F)F)cccc12)N[C@@H]1C(=O)NC[C@H]1O` [Compound 111, 3-[2-(4-fluorophenyl)-7-(trifluoromethyl)-1H-indol-3-yl]-N-[(3S,4R)-4-hydroxy-2-oxo-pyrrolidin-3-yl]propanamide], for which the IC50 was < 0.25 µM.

As to `C=Cc1cccc2c(CCC(=O)N[C@@H]3C(=O)NC[C@H]3O)c(-c3ccccc3)[nH]c12` [Compound 62, N-[(3S,4R)-4-hydroxy-2-oxo-pyrrolidin-3-yl]-3-(2-phenyl-7-vinyl-1H-indol-3-yl)propanamide], the IC50 was < 0.25 µM.

As for `Cc1cc(F)c2[nH]c(-c3ccc(F)cc3)c(CCC(=O)N[C@H]3CCNC3=O)c2c1` [Compound 31], the IC50 lay in the range of 0.25 to 1 µM.

What is called IC50 is the concentration at which inhibition is half-maximal.
